# Data published in US20140357584A1 (priority 2011, published 2014).
# Where two headings read alike, the source gives them in different places.
# Columns and labels:
# [1] = system: HIV-1 strain Bal: M-Tropic; test: Human PBMC assay, p24 antigen ELISA, HIV1 clinical strain Bal; assay type: cell-based
# Source text: (§1) Anti-HIV Evaluation Using Four HIV1 Clinical Strains.
# (§2) Four HIV1 clinical strains, BAL and SF162 (M-tropic), […], and 89.6 (a dual tropic strain), were used in the current study. Here a standardized human peripheral blood mononuclear cell culture (PBMC) assay was used to determine the compound susceptibility of these HIV-1 strains. AZT, an anti-HIV drug in clinical use, was used as a positive control. Briefly, human PBMCs were collected from a donor and stimulated for seven days. The preparations (compound or fraction) were then added to the cultured cells at a wide range of concentrations, and the different HIV-1 strains were used to challenge the cultured cells using 96-well plates. After seven-days of incubation, the supernatants were collected and the HIV p24 levels of the infected cells were determined using a p24 antigen ELISA. The ICsos were calculated by comparing p24 antigen values for the compounds (fraction)-containing wells with those for no drug control wells. In these experiments, AZT was used as positive controls.
# [2] = system: HIV-1 strain Lav.04: T-Tropic; test: Human PBMC assay, p24 antigen ELISA, HIV1 clinical strain Lav.04; assay type: cell-based
# Source text: as §1, §2
# four HIV-1 strains = test: Human PBMC assay, p24 antigen ELISA, summary over the four HIV-1 strains; assay type: cell-based; settings: read-out: IC50, depending on the strains
# Source text: Justiprocumins B (2) and patentiflorin A (3) were further evaluated against a broad spectrum of HIV strains including four HIV1 clinical strains, BAL and SF162 (M-tropic), […], and 89.6 (a dual tropic strain). In these experiments, AZT was used as a positive control. […] It is clear that justiprocumin B (2) and patentification A (3), like AZT, could inhibit the particle production of all four HIV-1 strains effectively in a dose-dependent manner.
# as §1, §2
# [3] = system: HIV-1 strain 89.6: Dual-Tropic; test: Human PBMC assay, p24 antigen ELISA, HIV1 clinical strain 89.6; assay type: cell-based
# Source text: as §1, §2
# [4] = system: HIV-1 strain SF162: M-Tropic; test: Human PBMC assay, p24 antigen ELISA, HIV1 clinical strain SF162; assay type: cell-based
# Source text: as §1, §2
# HIV replication = test: Anti-HIV Post-Entry protocol (HIV/HA pseudovirions, luciferase reporter, A549 target cells); assay type: cell-based; settings: for inhibition at 1 µg/mL: Human immunodeficiency virus 1, A549, read-out: inhibition of HIV replication
# [5] = system: HIV reverse transcription; test: HIV gene expression of the R/U5 and U5/gag transcripts; assay type: cell-based
# A549 cell line = test: Evaluation of toxicity (CellTiter 96), A549; assay type: cell-based, human; settings: at a concentration of 10 μg/mL
# Method: (§3) Approximately 5000 cells seeded in a 96-well tissue culture plate in DMEM supplemented with FBS and penicillin/streptomycin. DMSO alone or compounds in 100% DMSO were added on the following day at appropriate concentrations and incubated with cells at 37° C. in 5% CO2 for 24 hr. After 24 hr, all media were removed and replaced with 100 μL fresh complete DMEM. After 48 hr post initial addition of DMSO or compound, 20 μL of CellTiter 96 Aqueous One Solution was added per well. After gentle mixing, plates were incubated at 37° C. in 5% CO2 for 4 hr. 25 μL of a 10% SDS solution was added per well and plates were stored at room temperature for approximately 12 hr. Absorbance was then measured at 450 nm using a plate reader.
# Hela cell line = test: Evaluation of toxicity (CellTiter 96), Hela; assay type: cell-based; settings: at a concentration of 10 μg/mL
# Method: as §3
# [6] = Human immunodeficiency virus 1, BAL, PBMC, 168 h, read-out: IC50 Bal: M-Tropic, human PBMC, p24 antigen, seven days
# [7] = Human immunodeficiency virus 1, PBMC, 168 h, read-out: IC50 Lav.04: T-Tropic, human PBMC, p24 antigen, seven days
# [8] = Human immunodeficiency virus 1, PBMC
# [9] = Human immunodeficiency virus 1, PBMC, 168 h, read-out: IC50 89.6: Dual-Tropic, human PBMC, p24 antigen, seven days
# [10] = Human immunodeficiency virus 1, PBMC, 168 h, read-out: IC50 SF162: M-Tropic, human PBMC, p24 antigen, seven days
structure (smiles),measurement,setting,value
"Cc1cn([C@H]2C[C@H](N=[N+]=[N-])[C@@H](CO)O2)c(=O)[nH]c1=O [AZT, zidovudine, reference compound]",IC50,"[1]; Human immunodeficiency virus 1, BAL, PBMC, 168 h, human PBMC, p24 antigen, seven days, read-out: IC50 Bal: M-Tropic",77 nM
same,IC50,"[2]; Human immunodeficiency virus 1, PBMC, 168 h, human PBMC, p24 antigen, seven days, read-out: IC50 Lav.04: T-Tropic",79 nM
same,IC50,"four HIV-1 strains; Human immunodeficiency virus 1, range over four HIV-1 strains, human PBMC",77 to 95 nM
same,IC50,"[3]; Human immunodeficiency virus 1, PBMC, 168 h, human PBMC, p24 antigen, seven days, read-out: IC50 89.6: Dual-Tropic",95 nM
same,IC50,"[4]; Human immunodeficiency virus 1, PBMC, 168 h, human PBMC, p24 antigen, seven days, read-out: IC50 SF162: M-Tropic",85 nM
"COc1cc2c(O[C@@H]3O[C@H](C)[C@@H](O[C@@H]4O[C@H](CO)[C@@H](O)[C@H](O)[C@H]4O)[C@H](OC(C)=O)[C@H]3O)c3c(c(-c4ccc5c(c4)OCO5)c2cc1OC)C(=O)OC3 [Justiprocumin A (1), 9-(1,3-benzodioxol-5-yl)-4-[(3-O-acetyl-6-deoxy-4-O-β-D-glucopyranosyl-β-D-glucopyranosyl)oxy]-6,7-dimethoxy-naphtho[2,3-c]furan-1(3H)-one]",inhibition at 1 µg/mL,HIV replication,> 100%
"COc1cc2c(O[C@@H]3O[C@H](C)[C@@H](O[C@@H]4O[C@H](CO)[C@@H](O)[C@H](O)[C@H]4O)[C@H](O)[C@H]3OC(C)=O)c3c(c(-c4ccc5c(c4)OCO5)c2cc1OC)C(=O)OC3 [Justiprocumin B (2), 9-(1,3-benzodioxol-5-yl)-4-[(2-O-acetyl-6-deoxy-4-O-β-D-glucopyranosyl-β-D-glucopyranosyl)oxy]-6,7-dimethoxy-naphtho[2,3-c]furan-1(3H)-one]",IC50,[1]; [6],15 nM
same,IC50,[2]; [7],21 nM
same,IC50,four HIV-1 strains; [8],14 to 21 nM
same,inhibition at 1 µg/mL,HIV replication,> 100%
same,IC50,[3]; [9],15 nM
same,IC50,[4]; [10],14 nM
"COc1cc2c(OC3OC(C)C(O)C(O)C3O)c3c(c(-c4ccc5c(c4)OCO5)c2cc1OC)C(=O)OC3 (stereo not shown) [Patentiflorin A (3), patentiflorin A]",inhibition of HIV reverse transcription (R/U5 and U5/gag transcripts),[5],effective inhibitor of HIV reverse transcription
same,IC50,[1]; [6],30 nM
same,IC50,"[1]; read-out: IC50 Bal: M-Tropic, human PBMC, p24 antigen, seven days, listed as Synthetic patentiflorin A (3)",32 nM
same,cytotoxicity against A549,A549 cell line,no apparent cytotoxicity
same,cytotoxicity against Hela,Hela cell line,no apparent cytotoxicity
same,IC50,[2]; [7],24 nM
same,IC50,"[2]; read-out: IC50 Lav.04: T-Tropic, human PBMC, p24 antigen, seven days, listed as Synthetic patentiflorin A (3)",32 nM
same,IC50,four HIV-1 strains; [8],24 to 37 nM
same,IC50,"HIV replication; Human immunodeficiency virus 1, A549, read-out: anti-HIV activity IC50",< 0.01 µg/mL
same,IC50,[3]; [9],32 nM
same,IC50,"[3]; read-out: IC50 89.6: Dual-Tropic, human PBMC, p24 antigen, seven days, listed as Synthetic patentiflorin A (3)",31 nM
same,IC50,[4]; [10],37 nM
same,IC50,"[4]; read-out: IC50 SF162: M-Tropic, human PBMC, p24 antigen, seven days, listed as Synthetic patentiflorin A (3)",30 nM
